Assay results as given in patent US11426441B2, “Composition comprising protein phosphatase 1 inhibitory peptide for treating vascular diseases” (BethphaGen Inc., priority 2016, dated 2022).
No end group written: not given here.

Tests used:
SERCA2a = SERCA2a level and stability in RASMCs (immunostaining, western blotting); assay type: cell-based, rat; settings: synthetic conditions, 3 μM peptide
Protocol: (§1) Rat aortic smooth muscle cells (RASMCs) were fixed in 4% (w/v) paraformaldehyde at room temperature for 10 min, washed with PBS, and then transmitted with 0.1% (v/v) Triton X-100 in PBS for 40 min. After washing and blocking with 3% (w/v) BSA in PBS, the cells were incubated overnight at room temperature with antibodies against SERCA2a (1:250), SERCA2b (1:250), and PCNA (1:50). On the following day, the cells were washed with PBS and incubated with anti-rabbit and anti-mouse IgG conjugated to Alexa Fluor 488 and 594, respectively, for 1 hour at room temperature. The cells were treated with FluoroGuard antifade reagent (Bio-Rad, Hercules, Calif., USA), and the coverslips were examined under a fluorescent microscope.
(§2) Vascular smooth muscle cells (VSMCs) were homogenized in a minimal volume of 50 mM Tris-HCl, pH 7.4, supplemented with a broad-spectrum protease inhibitor cocktail (Calbiochem). The proteins were separated by SDS-PAGE and then transferred to polyvinylidene fluoride membranes (Schleicher & Schuell). After blocking with 5% (w/v) non-fat milk for 1 hour and washing with TBST, the membranes were incubated with antibodies against SERCA2a, SERCA2b (21st century biochemical), PCNA (abcam), GAPDH (Sigma-Aldrich), phospho-eNOS, eNOS, phospho-eIF2α, eIF2α (cell signaling), Vimentin, α-SMA, BMPR2 (Santa cruz), phospho-Akt, Akt (cell signaling), phospho-phospholamban (Merck), and Phospholamban (cell signaling). The membranes were then incubated with horseradish peroxidase-conjugated secondary antibodies (Jackson ImmunoResearch, West Grove, Pa., USA) and developed using a chemiluminescent substrate (Dogen). The blots were scanned and quantified using LAS software.
RASMCs were cultured in DMEM supplemented with 0.1% (v/v) FBS (Contractile) or in DMEM supplemented with 10% (v/v) FBS (Synthetic) in the presence of 3 μM control or ψPLB-SE peptide. Cycloheximide (Sigma) was added to media to a final concentration of 5 μg/ml. Cells were harvested after 0, 3, and 5 days of incubation and their protein extracts were subjected to western blotting.

[1] = test system: rat aortic smooth muscle cells (RASMCs); assay: RASMC proliferation (PCNA immunostaining, EZ-CyTox cell viability assay); assay type: cell-based; settings: synthetic conditions (10% FBS), 3 μM peptide
Protocol: The rat aortic smooth muscle cells (RASMCs) were isolated from the medial layer of the thoracic aorta derived from male Sprague-Dawley rats (body weight, 180-200 g) by an enzymatic reaction with collagenase (50 U/mL, Worthington) and pancreatic elastase (0.25 mg/mL, Sigma-Aldrich) for 4 hours at 37. The cells were collected and resuspended in DMEM containing 20% (v/v) fetal bovine serum. The resuspension was then plated on collagen I (Sigma-Aldrich)-coated glass coverslips and incubated at 37 in an atmosphere of 5% (v/v) CO2 and 95% (v/v) air. Human coronary smooth muscle cells (HCSMCs), pulmonary arterial endothelial cells (PAECs), and pulmonary arterial smooth muscle cells (PASMCs) were purchased from Lonza and cultured in EBM or SmBM (Lonza) supplemented with 0.5 mg/mL hEGF, […], 1 mg/mL hFGF, […] gentamicin/amphotericin-B, and 5% fetal bovine serum. All the cells were cultured at 37 in 5% (v/v) CO2 and 95% (v/v) air. RASMCs and HCSMCs were, respectively, plated at the densities of 1×10^4 cells/cm^2 and 1×10^5 cells/cm^2 for immunostaining and western blotting experiments. For RASMC and PASMC cell proliferation experiments, these cells were cultured in fetal bovine serum-free media for 3 days, and then proliferation was induced by serum addition.
as §1, with “microscope. […]” for “microscope.”

[2] = test system: monocrotaline (MCT)-induced pulmonary arterial hypertension rats; assay: Monocrotaline-induced pulmonary arterial hypertension in rats; assay type: in vivo, rat
Protocol: as §2
Eleven Sprague-Dawley rats (Damool science, Korea) weighing 250-300 g were administered with 60 mg/kg monocrotaline (MCT) (Sigma Aldrich) via intraperitoneal injection, and three animals of a control group were administered with 0.9% physiological saline. According to the dosing schedule, simultaneously with the administration of MCT, six animals for the […] were administered with ψPLB-SE peptide diluted in 300 μl via respiratory inhalation four times at intervals of one week. Five animals for the control group were administered with control peptide. The rats were sacrificed one week after the administration with last peptide, and then histological analysis and molecular biological experiments were conducted.
In order to indirectly measure the pulmonary artery pressure, right heart catheterization was conducted on the basis of a procedure reported in Nature Protocols in 2008. Rats were anesthetized, followed by tracheal intubation. The rats were placed on a homeothermic plate (AD Instruments, Spechbach, Germany) for the maintenance of body temperature during heart catheterization, and then kept breathing using an artificial respiratory device only for an animal (MiniVent type 845, Hugo Sachs Elektronik, March-Hugstetten, Germany). The chest of the rats was opened, and then high-fidelity 1.4 F micromanometer/Mikro-Tip Pressure catheter (Millar Instruments, Houston, Tex.) was allowed to infiltrate the tricuspid site, to measure the right ventricular end-systolic pressure, right ventricular end-diastolic pressure, left ventricular end-systolic pressure, and left ventricular end-diastolic pressure (RVESP, RVEDP, LVESP, LVEDP). Related values and data were collected and analyzed using the PowerLab data acquisition system (MPVS-Ultra Single Segment Foundation System, AD Instruments) and LabChart 7 for Windows software.
Pulmonary tissues were taken from animal models, fixed with 4% (w/v) paraformaldehyde for 5 days at room temperature, and then washed with PBS. After embedding the specimens in paraffin and sectioning the tissue blocks into a thickness of 7 μm, the sections were stained with haematoxylin and eosin (Sigma Aldrich) to investigate the vascular thickness and inflammation, and the sections were stained with Masson-trichrome (Sigma Aldrich) to investigate the extent of perivascular fibrosis, and then observed through an optical microscope.
The pulmonary tissues were obtained from rats and mice, and the cytokine levels in the tissues were quantitatively analyzed using human proinflammatory 10plex Meso Scale Diagnostics plates (MSD; Rockville, Md.).

With “RAETIEMPQ (not fully specified) [ψPLB-SE, 9-mer PP1 decoy peptide mimicking phosphorylated PLB; conjugated via GGG linker to cell penetrating peptide dNP2 or TAT]” the “SERCA2a reduction (immunostaining)” value (SERCA2a) was “completely inhibited”, the “reduction of SERCA2a (western blotting)” value (SERCA2a) was “inhibited” and the “stability of SERCA2a” value (SERCA2a; cycloheximide 5 μg/ml) was “restored nearly to the level observed under contractile conditions”. For the same sequence, the “PCNA expression (active cell division)” value ([1]; RASMCs) was “completely blocked”, the “increased proliferation of RASMCs (cell proliferation assay)” value ([1]; 24 hours) was “inhibited” and the “right ventricular end-systolic pressure” value ([2]; MCT 60 mg/kg rats, peptide via respiratory inhalation once a week for 4 weeks, MCT 67.4±6.4, sham 33.7±1.7) was 33.5±5.8. For the same sequence, the “expression degree of BMPR2” value ([2]; rat pulmonary tissue) was “restored”, the “fibrosis extent of vascular adventitia (Masson-trichrome staining)” value ([2]; rat pulmonary tissue) was “reduced” and the “increase in vascular thickening (hematoxylin and eosin staining)” value ([2]; rat pulmonary tissue) was “attenuated”. For the same sequence, the “phosphorylation level of eIF2α” value ([2]; rat pulmonary tissue) was “restored”, the “proinflammatory cytokines (GM-CSF, TNF-α, IL-17, IL-1β, IL-6, TGF-β) levels” value ([2]; rat pulmonary tissue) was “restored to nearly to the normal levels” and the “eNOS phosphorylation level (eNOS activity)” value ([2]; rat pulmonary tissue proteins) was “increased”. For the same sequence, the “increases in the expression of vimentin and α-SMA” value ([2]; rat pulmonary tissue, protein quantitative analysis) was “attenuated”.
